From publication PMC12860872, “Preclinical evaluation of DOTAGA.Glu.(FAPI)2 and DO3A.Glu.(FAPI)2 as theranostics with human dosimetry extrapolation to lutetium-177 and terbium-161 analogs” (European Journal of Nuclear Medicine and Molecular Imaging, 2025)
“And” between values parts separate entries of the source, which are not always exact repeats. Equal values may be shown once.

Test: Extrapolated human dosimetry (OLINDA/EXM, ICRP-89 phantoms)
Protocol: To address inter-animal variability, the TIACs for each source organ were calculated from both the mean nTACs and the nTACs obtainend from fitting the mean ± 1 standard deviation (SD) of the normalized time-activity data, providing upper and lower bounds.
The mice-to-human TIAC extrapolation accounted for species-specific differences in relative source organ masses, m(organ), as compared to the total body weight (WB), for the mice (m) and human (h) models respectively.
(§1) The human organ masses, m(organ)h, were obtained from ICRP-89 adult male and female reference phantoms, while the murine organ masses, m(organ)m, were derived from the standard MOBY mouse model. The extrapolated human TIACs, TIACh were entered in the OLINDA/EXM software to compute the absorbed doses to target organs and the effective dose for adult male, female, and gender-averaged human models. […]
The TIACs, for [177Lu]Lu-DOTAGA.Glu.(FAPI)2 and [177Lu]Lu-DO3A.Glu.(FAPI)2, were determined by time integration of the nTACs. To account for the inter-animal variability, the TIACs for each source organ were calculated using both the mean nTACs and the nTACs obtainend from fitting the mean ±1 standard deviation (SD) of the normalized time-activity data. This approach provided the upper and the lower bounds for the estimated TIACs.
The mice-to-human TIAC extrapolation was obtained considering the different (species-specific) relative source organ masses, m(organ), as compared to the total body weight (WB), for the mice (m) and human (h) models respectively.
as §1, with “the” for “ICRP-89”, “models phantoms defined in ICRP-89,” for “phantoms,”, “TIACs values, TIACh, for each source organ” for “TIACs, TIACh”, “input into the kinetic module of” for “entered in”, “software (version 2.1, HERMES Medical Solutions AB, Stockholm, Sweden)” for “software”

[1] = ICRP 89 Adult Female, extrapolated
[2] = ICRP 89 Adult Male, extrapolated

Absorbed dose (AD average) Adrenals [1]: 1.39E-02 mGy/Mbq | Absorbed dose (AD average) Brain [1]: 3.68E-02 mGy/Mbq | Absorbed dose (AD average) Breasts [1]: 3.54E-02 mGy/Mbq | Absorbed dose (AD average) Esophagus [1]: 3.67E-02 mGy/Mbq | Absorbed dose (AD average) Eyes [1]: 3.68E-02 mGy/Mbq | Absorbed dose (AD average) Gallbladder Wall [1]: 3.79E-02 mGy/Mbq | Absorbed dose (AD average) Heart Wall [1]: 3.39E-02 mGy/Mbq | Absorbed dose (AD average) Left colon [1]: 3.75E-02 mGy/Mbq | Absorbed dose (AD average) Ovaries [1]: 3.75E-02 mGy/Mbq | Absorbed dose (AD average) Rectum [1]: 3.75E-02 mGy/Mbq | Absorbed dose (AD average) Right colon [1]: 3.76E-02 mGy/Mbq | Absorbed dose (AD average) Stomach Wall [1]: 3.75E-02 mGy/Mbq | Absorbed dose (AD average) Thymus [1]: 3.72E-02 mGy/Mbq | Absorbed dose (AD average) Thyroid [1]: 3.64E-02 mGy/Mbq | Absorbed dose (AD average) Urinary Bladder Wall [1]: 3.70E-02 mGy/Mbq | Absorbed dose (AD average) Uterus [1]: 3.73E-02 mGy/Mbq | Effective dose (average) [1]: 4.10E-02 | Absorbed dose (AD average) Adrenals [2]: 1.05E-02 mGy/Mbq | Absorbed dose (AD average) Brain [2]: 2.80E-02 mGy/Mbq | Absorbed dose (AD average) Esophagus [2]: 2.84E-02 mGy/Mbq | Absorbed dose (AD average) Eyes [2]: 2.80E-02 mGy/Mbq | Absorbed dose (AD average) Gallbladder Wall [2]: 3.02E-02 mGy/Mbq | Absorbed dose (AD average) Heart Wall [2]: 2.78E-02 mGy/Mbq | Absorbed dose (AD average) Left colon [2]: 2.85E-02 mGy/Mbq | Absorbed dose (AD average) Prostate [2]: 2.81E-02 mGy/Mbq | Absorbed dose (AD average) Rectum [2]: 2.84E-02 mGy/Mbq | Absorbed dose (AD average) Right colon [2]: 2.86E-02 mGy/Mbq | Absorbed dose (AD average) Stomach Wall [2]: 2.84E-02 mGy/Mbq | Absorbed dose (AD average) Testes [2]: 2.72E-02 mGy/Mbq | Absorbed dose (AD average) Thymus [2]: 2.79E-02 mGy/Mbq | Absorbed dose (AD average) Thyroid [2]: 2.81E-02 mGy/Mbq | Absorbed dose (AD average) Urinary Bladder Wall [2]: 2.81E-02 mGy/Mbq | Effective dose (average) (ICRP 89 Adult Male, extrapolated, in mSv/MBq (unit assumed)): 2.91E-02 | higher tissue doses vs. the 177Lu-labeled analogs (human extrapolation, average over tissues): ~ 38%
Structure (SMILES): N#C[C@@H]1CC(F)(F)CN1C(=O)CNC(=O)c1ccnc2ccc(OCCCCNC(=O)CC[C@H](NC(=O)CN3CCN(CC(=O)[O-])CCN(CC(=O)[O-])CCN(CC(=O)[O-])CC3)C(=O)NCCCCOc3ccc4nccc(C(=O)NCC(=O)N5CC(F)(F)C[C@H]5C#N)c4c3)cc12.[161Tb+3] [[^161Tb]Tb-DO3A.Glu.(FAPI)2]
Absorbed dose (AD average) Kidneys [1]: 3.48E-02 ± 0.001 mGy/Mbq and 3.48E-02 mGy/Mbq | Absorbed dose (AD average) Liver [1]: 1.01E-01 ± 0.004 mGy/Mbq and 1.01E-01 mGy/Mbq | Absorbed dose (AD average) Lungs [1]: 5.78E-02 ± 0.01 mGy/Mbq and 5.78E-02 mGy/Mbq | Absorbed dose (AD average) Osteogenic Cells [1]: 8.70E-02 ± 0.003 mGy/Mbq and 8.70E-02 mGy/Mbq | Absorbed dose (AD average) Pancreas [1]: 3.59E-02 ± 0.001 mGy/Mbq and 3.59E-02 mGy/Mbq | Absorbed dose (AD average) Red Marrow [1]: 4.37E-02 ± 0.002 mGy/Mbq and 4.37E-02 mGy/Mbq | Absorbed dose (AD average) Salivary Glands [1]: 1.22E-01 ± 0.01 mGy/Mbq and 1.22E-01 mGy/Mbq | Absorbed dose (AD average) Small Intestine [1]: 3.72E-02 ± 0.002 mGy/Mbq and 3.72E-02 mGy/Mbq | Absorbed dose (AD average) Spleen [1]: 8.87E-02 ± 0.004 mGy/Mbq and 8.87E-02 mGy/Mbq | Absorbed dose (AD average) Total Body [1]: 4.70E-02 ± 0.002 mGy/Mbq and 4.70E-02 mGy/Mbq | Absorbed dose (AD average) Kidneys [2]: 2.84E-02 ± 0.001 mGy/Mbq and 2.84E-02 mGy/Mbq | Absorbed dose (AD average) Liver [2]: 8.31E-02 ± 0.003 mGy/Mbq and 8.31E-02 mGy/Mbq | Absorbed dose (AD average) Lungs [2]: 4.73E-02 ± 0.01 mGy/Mbq and 4.73E-02 mGy/Mbq | Absorbed dose (AD average) Osteogenic Cells [2]: 8.97E-02 ± 0.003 mGy/Mbq and 8.97E-02 mGy/Mbq | Absorbed dose (AD average) Pancreas [2]: 2.88E-02 ± 0.001 mGy/Mbq and 2.88E-02 mGy/Mbq | Absorbed dose (AD average) Red Marrow [2]: 3.45E-02 ± 0.001 mGy/Mbq and 3.45E-02 mGy/Mbq | Absorbed dose (AD average) Salivary Glands [2]: 1.00E-01 ± 0.01 mGy/Mbq and 1.00E-01 mGy/Mbq | Absorbed dose (AD average) Small Intestine [2]: 2.85E-02 ± 0.001 mGy/Mbq and 2.85E-02 mGy/Mbq | Absorbed dose (AD average) Spleen [2]: 7.27E-02 ± 0.003 mGy/Mbq and 7.27E-02 mGy/Mbq | Absorbed dose (AD average) Total Body [2]: 3.70E-02 ± 0.002 mGy/Mbq and 3.70E-02 mGy/Mbq
